Source: patent US20050238675A1, “Water-soluble formulations of fat soluble vitamins and pharmaceutical agents and their applications” (priority 2004, published 2005)

Assays:
[1] = Solubility measurement of Co-Q10 in aqueous solution (HPLC assay); assay type: physicochemical
[2] = Solubility measurement of beta-carotene in water (0.45 micron filtration, UV-Vis spectrometry); assay type: physicochemical; settings: beta-carotene admixed in edible oil, mixed with 10 ml DI water, 0.45 micron syringe filter
Description: Solubility Measurement: For comparison purpose, the solubility of beta-carotene was measured both in edible oil and in the micellized product of Example 1 described above. In these measurements a suitable amount of sample is mixed with 10 ml of DI water for at least 10 minutes. The solutions are filtered through 0.45 microns syringe filter. The beta-carotene contained in the sample after this filtration is measured by UV-Vis spectrometry. […] 100% of the originally admixed beta-carotene is measured to be present in the micellized filtered sample of Example 1.

**Q.** With `COC1=C(OC)C(=O)C(C/C=C(\C)CC/C=C(\C)CC/C=C(\C)CC/C=C(\C)CC/C=C(\C)CC/C=C(\C)CC/C=C(\C)CC/C=C(\C)CC/C=C(\C)CCC=C(C)C)=C(C)C1=O` [Co-Q10 powder, ubidecarenone] as the molecule, how does the “Co-Q10 detected in aqueous solution” value [1] read?
**A.** no Co-Q10 detected

**Q.** For `CC1=C(/C=C/C(C)=C/C=C/C(C)=C/C=C/C=C(C)/C=C/C=C(C)/C=C/C2=C(C)CCCC2(C)C)C(C)(C)CCC1` [beta-carotene], which “beta-carotene found in the aqueous sample” value [2] is on record?
**A.** No detectable amount
